Test results from patent US9233138B2, “Compositions for promoting HIV-1 virolysis and methods using same” (Drexel University, priority 2013, dated 2016).
“Also recorded” adds a separate entry of the source. Like-named read-outs stand apart in the source and are kept apart here.

Key:
[1] = test system: HIV-1 BaL pseudotyped virus; format: cell-based; conditions: for IC50: read-out: IC50, inhibition of HIV-1 BaL viral entry
[2] = test system: HIV-1 BaL pseudotyped virus
VSV pseudotyped virus [3] = format: cell-based, Vesicular Stomatitis Virus
VSV pseudotyped virus [4] = test system: VSV pseudotyped virus; design: species or system Vesicular Stomatitis Virus
[5] = test system: fully infectious HIV-1 BaL; test: Virolysis assay, p24 leakage ELISA, fully infectious virus; conditions: FIG. 5; read-out: IC50 for p24 leakage from fully infectious HIV-1 BaL
HOS.T4.R5 cells [6] = test system: HOS.T4.R5 cells
HIV-1 BaL pseudovirus [7] = conditions: 100 nM, 10 to 30 min at 37° C., compared with PBS treated virus
Experimental: The compounds were incubated with the HIV-1 BaL pseudovirus for 30 min at 37° C. before fixing the virions with 0.1% paraformaldehyde and loaded onto a holey carbon 200 mesh grid for TEM analysis. The grids were stained with 1% uranyl acetate and loaded onto a JEM 2100 microscope system (JEOL, Japan) operated at 120 kV. Energy-dispersive X-ray (EDX) spectroscopy was conducted on the sample (blue) and the empty mesh (red) in order to confirm assignment of virion particles.
Transmission electron microscopy (TEM) analysis was conducted to assess the morphology of untreated and D4- and D8-treated virions. Pseudotyped HIV-1 BaL was treated with D4 or D8 at 100 nM from 10 to 30 min at 37° C. The samples were then spun for 2 hours at 16,000 rpm in an ultracentrifuge (Eppendorf) at 4° C. The residual virions were fixed using 0.1% paraformaldehyde for 15 min at 4° C. The paraformaldehyde was filtered using a 100 kDa filter (Millipore), and the virions were resuspended in deionized water. The samples were then loaded onto a lacey carbon 200 mesh grid (Pacific Grid Tech), and the grid was then negatively stained using 2% uranyl acetate. Once the grid was dried, the samples were loaded onto a JEM 2100 microscope system (JEOL, Japan) operated at 120 kV. The virus images and the background mesh were evaluated by energy-dispersive X-ray spectroscopy (EDX) in order to confirm identification of virions. […]

HIV-1 group M clades = conditions: read-out: IC50, antiviral activity against all HIV-1 group M clades; cited from earlier work
Env / gp120 = conditions: cited from earlier work
A-MLV pseudotyped virus = format: cell-based, Amphotropic Murine Leukemia Virus
HIV-1 BaL pseudovirus [8] = conditions: D4 and D8 50 nM; competitor serial dilution from 0.5 μM
HOS.T4.R5 cells [9] = test: Cytotoxicity assay with WST-1 reagent; design: dose or concentration left out as unconfirmed; conditions: 24 hours post-exposure, FIG. 3

Molecule: (G4S)4-MPER [linker(4)-MPER, reference compound]
- virus inactivation accompanying p24 leakage [1]: not associated with equivalent virus inactivation
- p24 leakage ([2]; non-His-tagged peptide, FIG. 13C): Significant p24 leakage

Molecule: D4: fusion of CVN and MPER with (Gly4Ser)4-His6 linker: SEQ ID NO:1-(SEQ ID NO:6)4-SEQ ID NO:5-SEQ ID NO:11
- IC50 [1]: 0.58 ± 0.069 nM
- viral entry inhibition, VSV envelope pseudovirus (VSV pseudotyped virus [3]): no significant dose-dependent viral entry inhibition
- IC50 ([2]; HIV-1 BaL pseudovirus, 30 min incubation, relative to 1% Triton X-100 lysed virus, FIG. 4A, read-out: IC50 for viral leakage (p24 release)): 14.2 ± 0.8 nM
- p24 leakage, VSV-envelope control virus (VSV pseudotyped virus [4]): no leakage
- IC50 [5]: 200 ± 22 nM
- cytotoxicity (cell viability, WST-1) (HOS.T4.R5 cells [6]): No statistically significant differences
- virion morphology after treatment (TEM) (HIV-1 BaL pseudovirus [7]): significant morphological differences relative to intact virions

Molecule: microvirin [MVN, reference compound]
- antiviral property / infectivity inhibition of MVN-based DAVEI [1]: only exhibited antiviral property
- virolytic property of MVN-based DAVEI ([2]; FIG. 10C): only exhibited antiviral property
- IC50 (HIV-1 group M clades): 2 to 167 nM
- causes gp120 shedding? (Env / gp120): No
- conformationally activates Env? (Env / gp120): No

B1: cyanovirin-N (protein)
chain: LGKFSQTCYNSAIQGSVLTSTCERTNGGYNTSSIDLNSVIENVDGSLKWQPSNFIETCRNTQLAGSSELAAECKTRAQQFVSTKINLDDHIANIDGTLKYE
modifications: cyanovirin-N fragment
- IC50 [1]: 0.16 ± 0.031 nM
- viral entry inhibition, VSV envelope pseudovirus (VSV pseudotyped virus [3]): no significant dose-dependent viral entry inhibition
- viral entry inhibition, A-MLV envelope pseudovirus (A-MLV pseudotyped virus): no significant dose-dependent viral entry inhibition
- leakage of intraviral p24 ([2]; at concentrations up to at least 10 μM, FIG. 4A): unable to induce the leakage of intraviral p24
- competition of the virolytic activity of both D4 and D8 (HIV-1 BaL pseudovirus [8]): observed in a dose-dependent fashion
- causes gp120 shedding? (Env / gp120): No
- conformationally activates Env? (Env / gp120): No
- cytotoxicity (cell viability, WST-1) (HOS.T4.R5 cells [9]): no significant cytotoxicity; also recorded: No statistically significant differences
